Measured values reported in PMC6017290, “Oleanolic Acid-amino Acids Derivatives: Design, Synthesis, and Hepatoprotective Evaluation In Vitro and In Vivo” (Molecules : A Journal of Synthetic Chemistry and Natural …, 2018).

Legend:
HepG2 = experiment: MTT cell viability assay, HepG2; format: cell-based; conditions: Homo sapiens, 72 h, mean ± SD of three experiments
Protocol: (§1) Cell viability was evaluated using an MTT assay. HSCs, HepG2, Bel-7402, and L02 cells were seeded, respectively, in 96-well plates at a density of 3 × 10^3 cells per-well and stabilized at 37 °C for 24 h in a humidified atmosphere with 5% CO2. The growing cells were exposed to various concentrations of the tested drugs and incubated for 72 h (37 °C, 5% CO2). The MTT solution (20 μL, 5 mg/mL) was added to each well and incubated for 4 h. After removing the media, formazan crystals were dissolved with DMSO (150 μL). After shaking for 10 min, the absorbance was quantified at 490 nm. Wells containing no drugs were used as blanks. The IC50 values were defined as the concentration of compounds that produced a 50% reduction of surviving cells and were calculated using the Logit-method. The inhibitory rate was calculated in the following Equation (1): Inhibition rate (%) = (1 − OD Sample group/OD Control group) × 100%(1)

L02 = experiment: MTT cell viability assay, L02 normal liver cell; format: cell-based; conditions: Homo sapiens, 72 h, mean ± SD of three experiments
Protocol: as §1

Bel-7402 = experiment: MTT cell viability assay, Bel-7402; format: cell-based; conditions: Homo sapiens, 72 h, mean ± SD of three experiments
Protocol: as §1

HSCs [1] = experiment: MTT cell viability assay, HSCs; format: cell-based; conditions: 72 h, mean ± SD of three experiments
Protocol: as §1

HSCs [2] = experiment: Giemsa staining and DAPI staining, morphological changes; format: cell-based; conditions: 1.5, 3.0, 6.0 µM, 72 h
Protocol: HSCs cells in logarithmic growth phase were cultured in 6-well plates at a density of 3 × 10^4 cells/mL for 24 h at 37 °C in a humidified atmosphere with 5% CO2. Then, each group was treated with 3g at various concentrations (0, 1.5, 3.0, and 6.0 µM) for 72 h. The cell culture medium was discarded. Additionally, the cells were washed twice with PBS, kept in PBS/ethanol (1:1) for 2 min, and fixated in ethanol for 10 min. After removing the ethanol, the cells were stained with giemsa staining for 2 min and observed under inverted phase-contrast microscope at a magnification of 400×.
HSCs cells in logarithmic growth phase were cultured in 6-well plates at a density of 3 × 10^4 cells/mL for 24 h at 37 °C in a humidified atmosphere with 5% CO2. Additionally, each group was treated with different concentrations of 3g (0, 1.5, 3.0, and 6.0 µM) for 72 h. Cell culture medium was discarded, and the cells were washed twice with PBS. The cells were fixed with 4% paraformaldehyde (pH 7.4) for 15 min and then washed twice with PBS. With an excitation wavelength of […], 4′,6-diamidino-2-phenylindole (DAPI) staining was then performed for 2 min, and nuclear fragments were observed using inverted phase-contrast microscope at a magnification of 400×.

[3] = tested on: CCl4 acute liver injury mice model; experiment: CCl4 acute liver injury mice model (HE staining, serum ALT and AST); format: in vivo; conditions: 20 mg/kg intragastric, 8 days, CCl4 i.p., 16 h after injury; for activity of ALT in serum / activity of AST in serum: vs model group
Protocol: The twelve mice were randomly divided into the control group, model group, administration of OA group, and administration of 3g group. In the administration of OA and 3g group, the mice were fed with OA and 3g suspension with 0.5% CMC-Na at a dose of 20 mg/kg body weight. The control group and model group were intragastrically administered with equal volume of 0.5% CMC-Na; during administration for 8 days, the general activity, fur, and feces of mice were observed daily. After administration for 1 h on the 8th day, the other groups were intraperitoneally injected with 10mL/kg 0.2% of the carbon tetrachloride (CCl4) olive oil solution, while the control group was intraperitoneally injected with olive oil solution. After 16 h of injury, the serum was prepared by centrifugation at 3000 rpm by orbital blood. The ability of ALT and AST was measured according to the instructions of the assay kit. The liver tissues of each group were taken out and the morphological differences were observed. The large lobe of liver was taken for pathological examination with HE staining under an optical microscope (×100).

HSCs [4] = experiment: Annexin V-FITC/PI staining apoptosis assay (flow cytometry); format: cell-based; conditions: 72 h, control cells 15.1%
Protocol: HSCs cells in logarithmic growth phase were cultured in 6-well plates at a density of 3 × 10^4 cells/mL for 24 h at 37 °C in a humidified atmosphere with 5% CO2. HSCs cells were treated with 3g at various concentrations (0, 1.5, 3.0, and 6.0 µM) for 72 h. Then, cells were collected, washed with annexin-binding buffer, and stained with annexin V-FITC and PI for 15 min in the dark. After that, the samples were analyzed by flow cytometry (BD FACSCalibur, San Jose, CA, USA).

HSCs [5] = experiment: Intracellular free Ca2+ levels assay (Fluo-3AM, flow cytometry); format: cell-based; conditions: 1.5, 3.0, 6.0 µM, 72 h
Protocol: HSCs cells in logarithmic growth phase were cultured in 6-well plates at a density of 3 × 10^4 cells/mL for 24 h at 37 °C in incubator with 5% CO2. After treatment with different concentrations of 3g (0, 1.5, 3.0, and 6.0 μM) for 72 h, cells were collected and washed twice with cold PBS, then resuspended in HBSS buffer with 10 μM Fluo-3AM and incubated for 30 min at 37 °C in the dark. Intracellular Ca^2+ levels were analyzed by the flow cytometer at 488 nm excitation wavelength.

HSCs [6] = experiment: Mitochondrial membrane potential assay (Rh123, flow cytometry); format: cell-based; conditions: 1.5, 3.0, 6.0 µM, 72 h
Protocol: HSCs cells in logarithmic growth phase were seeded in 6-well culture plate at a density of 3 × 10^4 cells/mL for 24 h at 37 °C in incubator with 5% CO2. After treatment with different concentrations of 3g (0, 1.5, 3.0, and 6.0 μM) for 72 h, cells were collected and washed twice in cold PBS, then resuspended in 1 mL cell culture medium with Rh123 (10 μg/mL) and incubated for 30 min at 37 °C. After being washed twice with cold PBS, cells were immediately analyzed by the flow cytometer at 488 nm excitation wavelength.

Row | SMILES | IC50 (HepG2) | IC50 (L02) | IC50 (Bel-7402) | IC50 (HSCs [1]) | apoptotic morphological changes of HSCs, Giemsa staining (HSCs [2]) | nuclear changes of HSCs, DAPI staining (HSCs [2]) | liver morphological observation by HE staining [3] | activity of ALT in serum [3] | activity of AST in serum [3] | percentage (Q2 + Q4) of apoptotic HSCs (HSCs [4]; 1.5 µM) | percentage (Q2 + Q4) of apoptotic HSCs (HSCs [4]; 3.0 µM) | percentage (Q2 + Q4) of apoptotic HSCs (HSCs [4]; 6.0 µM) | change of intracellular-free Ca2+ fluorescence with concentration (HSCs [5]) | change of Rh123 mean fluorescent intensity (MFI) with concentration (HSCs [6])
1 | CC1(C)CCC2(C(=O)O)CCC3(C)C(=CCC4C5(C)CCC(OC(=O)CN)C(C)(C)C5CCC43C)C2C1 (centres unmarked) [3a] | 11.5 ± 0.95 µM | > 25 µM | 12.1 ± 1.32 µM | 13.6 ± 1.12 µM |  |  |  |  |  |  |  |  |  | 
2 | CC(N)C(=O)OC1CCC2(C)C(CCC3(C)C2CC=C2C4CC(C)(C)CCC4(C(=O)O)CCC23C)C1(C)C (centres unmarked) [3b] | 12.2 ± 1.48 µM | > 50 µM | > 25 µM | 9.92 ± 1.05 µM |  |  |  |  |  |  |  |  |  | 
3 | CC1(C)CCC2(C(=O)O)CCC3(C)C(=CCC4C5(C)CCC(OC(=O)C6CCCN6)C(C)(C)C5CCC43C)C2C1 (centres unmarked) [3c] | 11.1 ± 0.63 µM | 10.1 ± 0.56 µM | 10.5 ± 1.49 µM | 15.6 ± 2.31 µM |  |  |  |  |  |  |  |  |  | 
4 | CC(C)CC(N)C(=O)OC1CCC2(C)C(CCC3(C)C2CC=C2C4CC(C)(C)CCC4(C(=O)O)CCC23C)C1(C)C (centres unmarked) [3d] | > 25 µM | > 25 µM | > 25 µM | > 25 µM |  |  |  |  |  |  |  |  |  | 
5 | CCC(C)C(N)C(=O)OC1CCC2(C)C(CCC3(C)C2CC=C2C4CC(C)(C)CCC4(C(=O)O)CCC23C)C1(C)C (centres unmarked) [3e] | 18 ± 1.78 µM | > 25 µM | 18.7 ± 1.63 µM | 24.5 ± 1.99 µM |  |  |  |  |  |  |  |  |  | 
6 | CC(C)C(N)C(=O)OC1CCC2(C)C(CCC3(C)C2CC=C2C4CC(C)(C)CCC4(C(=O)O)CCC23C)C1(C)C (centres unmarked) [3f] | 18.6 ± 2.65 µM | 15.2 ± 1.2 µM | > 25 µM | 19.6 ± 3.2 µM |  |  |  |  |  |  |  |  |  | 
7 | CC1(C)CCC2(C(=O)O)CCC3(C)C(=CCC4C5(C)CCC(OC(=O)C(N)CCCCN)C(C)(C)C5CCC43C)C2C1 (centres unmarked) [3g] | 3.67 ± 0.61 µM | 12.3 ± 2.34 µM | 4.7 ± 0.75 µM | 3.46 ± 1.16 µM | evident nuclear fragmentation, chromatin condensation, and margination in a dose-dependent manner | nuclear condensation and fragmentation, as well as the formation of apoptotic bodies with irregular shape | more pathological changes were relieved in balloon-like hepatocyte edema and interstitial inflammatory cell infiltration than in OA | remarkably closer to control | remarkably closer to control | 29.4% | 50.5% | 76.5% | increased dramatically | decreased with the administration of higher concentrations
8 | CC1(C)CCC2(C(=O)O)CCC3(C)C(=CCC4C5(C)CCC(OC(=O)C(N)Cc6ccccc6)C(C)(C)C5CCC43C)C2C1 (centres unmarked) [3h] | 11.5 ± 0.94 µM | > 50 µM | 8.5 ± 1.65 µM | 14.8 ± 0.8 µM |  |  |  |  |  |  |  |  |  | 
9 | CNCC(=O)OC1CCC2(C)C(CCC3(C)C2CC=C2C4CC(C)(C)CCC4(C(=O)O)CCC23C)C1(C)C (centres unmarked) [3i] | > 25 µM | > 50 µM | 11.8 ± 0.83 µM | 7.3 ± 1.58 µM |  |  |  |  |  |  |  |  |  | 
10 | CC1(C)CCC2(C(=O)O)CCC3(C)C(=CCC4C5(C)CCC(OC(=O)C6CCC(=O)N6)C(C)(C)C5CCC43C)C2C1 (centres unmarked) [3j] | 23.9 ± 2.65 µM | > 50 µM | > 25 µM | > 25 µM |  |  |  |  |  |  |  |  |  | 
11 | CC1(C)CC[C@]2(C(=O)O)CC[C@]3(C)C(=CC[C@@H]4[C@@]5(C)CC[C@H](O)C(C)(C)[C@@H]5CC[C@]43C)[C@@H]2C1 [OA, 3β-hydroxyolean-12-en-28-oic acid, reference compound] | > 50 µM | > 50 µM | > 50 µM | > 50 µM |  |  |  | reduced to some extent | reduced to some extent |  |  |  |  | 
